In general, melting point refers to the temperature of the solid-liquid transition.

Structures are written as SMILES.

`C#CCNCC(COCc1c(F)cccc1F)c1c(C)cccc1C.Cl` (stereo not drawn) [8.12]: the melting point amounted to 145 °C.
`Cc1cccc(C)c1C(CNC1CCCC1)COCc1c(F)cccc1F.Cl` (stereo not drawn): the melting point came out at 130 °C.
`C=CCN(C)CC(c1c(C)cccc1C)C(OC)c1c(F)cccc1F.Cl` (stereo not drawn) [11.55] yielded a melting point of 116 °C.
`Cc1cccc(C)c1COCC(CNCC1CC1)c1c(C)cccc1C.Cl` (stereo not drawn) had a melting point of 142 °C.
With `CCCNCC(COCc1ccccc1F)c1c(C)cccc1C.Cl` (stereo not drawn), the melting point amounted to 100 °C.
The compound `Cc1cccc(C)c1C(CNCC(C)C)COCc1c(F)cccc1F.Cl` (stereo not drawn) returned a melting point of 119 °C.
Regarding `Cc1cccc(C)c1C(CNCC1CC1)COCc1c(F)cccc1F.Cl` (stereo not drawn), the melting point came to 145 °C.
As for `Br.Cc1cccc(C)c1C(CNCC1CCCO1)COCc1c(F)cccc1F` (stereo not drawn), the melting point worked out at 149 °C.
As for `Cc1cccc(C)c1C(CNC1CCCC1)COCc1ccccc1F.Cl` (stereo not drawn), the figure is 102 °C; as for `Cc1cccc(C)c1C(CNC(C)C)COCc1ccccc1F.Cl` (stereo not drawn), 123 °C; as for `Cc1cccc(C)c1C(CNCC1CC1)COCc1ccccc1F.Cl` (stereo not drawn), 101 °C.
To `Cc1cccc(C)c1C(CNCC1CC1)COCc1c(F)cccc1Cl.Cl` (stereo not drawn) belongs 154 °C; to `COCCNCC(COCc1ccccc1F)c1c(C)cccc1C.Cl` (stereo not drawn), 77 °C.
As for `Cc1cccc(C)c1C(COCc1c(F)cccc1F)CN(C)C.Cl` (stereo not drawn), the figure is 144 °C.
Consider `CCCNCC(COCc1c(F)cccc1F)c1c(C)cccc1C.Cl` (stereo not drawn), for which the melting point was 142 °C.
To `C#CCNCC(COCc1ccccc1F)c1c(C)cccc1C.Cl` (stereo not drawn) belongs 112 °C.
As for `Cc1cccc(C)c1C(CNC(C)C)COCc1c(F)cccc1F.Cl` (stereo not drawn), the figure is 138 °C; as for `COCCNCC(COCc1c(F)cccc1F)c1c(C)cccc1C.Cl` (stereo not drawn), 128 °C.
For the compound `Br.Cc1cccc(C)c1C(CNCC1CC1)COCc1ccccc1F` (stereo not drawn), the melting point was 101 °C.
On to `Br.CCCN(CCC)CC(COCc1c(F)cccc1F)c1c(C)cccc1C` (stereo not drawn), for which the melting point stood at 143 °C.
Regarding `C=C(C)CN(C)CC(c1c(C)cccc1C)C(OC)c1c(F)cccc1F.O=C(O)C(=O)O` (stereo not drawn), the melting point was 128 °C.
To `C#CCNCC(COCc1c(F)cccc1F)c1c(C)cccc1C.Cl` (stereo not drawn) [8.9] belongs 124 °C.
As for `Br.Cc1cccc(C)c1C(CNC(C)C)COCc1ccccc1F` (stereo not drawn), the melting point was 111 °C.
As for `Cc1cccc(C)c1C(CNCC1CCC1)COCc1ccccc1F.Cl` (stereo not drawn), the figure is 191 °C.
